Columns and labels:
[1] = tested on: primary hepatocytes from WT and MUP-uPA mice; assay: PA-induced lipotoxic cell death in primary hepatocytes (Cell Counting Kit-8 cell viability); format: cell-based; conditions: for PA-induced cell death (cell viability): 300 μM PA for 24 hr with 500 μM TUDCA or 1 mM 4-PBA, WT and MUP-uPA hepatocytes
Description: (§1) Cell viability was assessed using Cell Counting Kit-8 assay. Data are means±S.D. of triplicate wells. *p<0.05. […] CHOP expression, SREBP1 maturation, and JNK phosphorylation were assessed by IB. FIGS. 4C-4D show the effect of GRP78 overexpression. MUP-uPA hepatocytes were infected with adenoviruses encoding LacZ or GRP78 and then incubated with PA. SREBP1 maturation (FIG. 4C) and cell viability (FIG. 4D) were assessed as above. […] Data are means±S.D. of triplicate wells. *p<0.05. FIGS. 4F-4I show the effect of TUDCA on NASH in HFD-fed MUP-uPA mice. 16 week old HFD-fed MUP-uPA mice were i.p. injected with TUDCA (250 mg/kg) or vehicle, and after 4 weeks of daily treatment, liver histology (scale bar=100 μm) (FIG. 4F), serum ALT (FIG. 4G), liver TG (FIG. 4H) and liver cholesterol (FIG. 4I) were evaluated. Bar graphs are means±S.D. (n=5 per group). *p<0.05. See also FIGS. 11A-11M.
To examine whether ER stress enhances lipotoxicity in MUP-uPA hepatocytes, we incubated WT and MUP-uPA hepatocytes with PA.

[2] = tested on: primary hepatocytes from WT and MUP-uPA mice; assay: Immunoblot of CHOP expression, SREBP1 maturation and JNK phosphorylation in PA-treated primary hepatocytes; format: cell-based, mouse
Description: as §1, with “FIGS. 4A-4I are pictorial and graphical diagrams showing that chemical chaperons attenuate lipotoxicity and liver damage in MUP-uPA mice. […] Cell viability” for “Cell viability”
Primary hepatocytes were isolated (He et al., 2013) and cultured in William's E medium with 10% FBS on collagen-coated plates. PA (Sigma) was dissolved in ethanol at 50° C. and then diluted in bovine serum albumin-containing RPMI-1640 medium that was applied to primary hepatocytes at a final concentration of 200 (to analyze signal transduction) or 300 (to analyze cell death) μM.
Immunoblotting and real-time Q-PCR were described (Maeda et al., 2005). Antibodies used were against: phospho-ERK, ERK1/2, phospho STAT3, STAT3, phospho-JNK, JNK1/2, phospho-S6, S6, p65, cyclinD1, YAP (all from Cell Signaling); K19, GRP78, SREBP1, CHOP, CCL7, TNFR1 (all from Santa Cruz Biotechnology); phospho-eIF2α (Upstate); tubulin (Sigma); F4/80 (Molecular Probes); Ki67 (Gene Tex); AFP (Biocare Medical); TNF (R&D Systems); B220 (BD Pharmingen). TUDCA and 4-PBA were from Calbiochem and Sigma, respectively. GSH:GSSG ratio was analyzed using GSSG/GSH Quantification Kit (Dojindo).
To examine whether ER stress enhances lipotoxicity in MUP-uPA hepatocytes, we incubated WT and MUP-uPA hepatocytes with PA. […] PA increased CHOP expression and SREBP1 maturation in WT hepatocytes, but these effects were more pronounced in MUP-uPA hepatocytes, which expressed both proteins prior to PA addition (FIG. 4B). To examine the contribution of ER stress to these phenomena, we treated hepatocytes with the chemical chaperons 4-phenylbutyrate (4-PBA) and tauro-ursodeoxycholic acid (TUDCA), which reduce ER stress (Ozcan et al., 2006).

LFD or HFD-fed WT mice = assay: Tunicamycin-induced ER stress and liver damage in LFD- or HFD-fed WT mice; format: in vivo, mouse
Text: FIGS. 10A-10J are pictorial and graphical diagrams showing that ER stress is sustained by HFD in MUP-uPA mice. […] Arrows indicate dilated ER (scale bar=1 μm). […] Representative images of livers and H&E (FIG. 10D) and TUNEL (FIG. 10E) staining of liver sections prepared 36 hrs later (scale bar=100 μm). […] Data are means±S.D. (n=3-4 per group). […] All bar graphs represent means±S.D. n=3 per group). *p<0.05.
Although the mechanism responsible for hepatocyte death in young MUP-uPA mice is not entirely clear, their hepatocytes are ER stressed (Sandgren et al., 1991). Indeed, several ER stress markers, including CHOP, GRP78, spliced XBP1 (sXBP1), phosphorylated (p) eIF2α, p-IRE1α and p-JNK, were elevated in 5 weeks old MUP-uPA mice compared with WT (FIGS. 3A and 10A). While most markers declined in 16 week old MUP-uPA mice, paralleling the decline in uPA expression, HFD-fed MUP-uPA mice maintained strong eIF2α and JNK phosphorylation and CHOP expression, (FIGS. 3B and 10A). In WT mice, HFD feeding induced only a slight elevation in p-eIF2α and CHOP mRNA with no effect on CHOP protein (FIG. 3B). Immunohistochemistry (IHC) confirmed nuclear CHOP in hepatocytes of 5 weeks old MUP-uPA mice, which was sustained at 16 weeks of age only in HFD-fed MUP-uPA mice (FIG. 3C). […] After 24 weeks of HFD, expression of the […] ligand TRAIL was also elevated in the MUP-uPA liver. […] Thus, whereas ER stress appears to be induced by uPA expression in 5 weeks old MUP-uPA mice, it declines due to transgene extinction. However, feeding these mice with HFD re-kindles the stress response and induces several cell death mediators that are not expressed in HFD-fed WT mice. To determine whether ER stress can cause ballooning degeneration and hepatocyte death, we injected HFD-fed WT mice with the protein glycosylation inhibitor and ER stress elicitor tunicamycin. This treatment led to rapid (36 hrs) induction of ballooning degeneration, hepatocyte apoptosis and ALT release only in HFD-fed mice (FIGS. 10D-10F).

HFD-fed MUP-uPA mice = assay: Effect of TUDCA on NASH in HFD-fed MUP-uPA mice; format: in vivo, mouse
Description: as §1, with “FIGS. 4A-4I are pictorial and graphical diagrams showing that chemical chaperons attenuate lipotoxicity and liver damage in MUP-uPA mice. […] Cell viability” for “Cell viability”
FIGS. 11A-11M are pictorial and graphical diagrams showing the effects of TUDCA and GRP78 overexpression and CHOP ablation on NASH and HCC development. FIGS. 11A and 11B show cell death and ROS accumulation in livers of TUDCA- or vehicle-treated HFD-fed MUP-uPA mice were examined by TUNEL (FIG. 11A) and DHE staining (FIG. 11B), respectively (scale bar=100 μm). […] CHOP protein expression in whole liver and mature SREBP1 in the nuclear fraction were examined by IB analysis. Shown are three individual livers per condition. FIGS. 11D and 11E show the effects of GRP78 overexpression. HFD-fed MUP-uPA mice were intravenously injected with 1×10^9 pfu of Ad-LacZ or Ad-GRP78. After 6 days the mice (n=6 per group) were sacrificed and hepatic steatosis was analyzed by H&E staining (scale bar=100 μm) (FIG. 11D) and GRP78 expression was determined by IB analysis (FIG. 11E). […] Data are means±S.D. (n=3 per group). […] FIGS. 11H-11K show the effect of hepatocyte CHOP ablation on tumor development and severity of NASH in HFD-fed MUP-uPA mice at 40 weeks of age. […] Results are means±S.E.M. (Chop^F/F/MUP-uPA, n=17; Chop^Δhep/MUP-uPA, n=11). *p<0.05. […] Data are means±S.D. (n=5-6 per group).
FIGS. 12A-12F are pictorial and graphical diagrams showing characteristics of Tnfr1^−/−/MUP-uPA mice. FIGS. 12A and 12B show the effect of 4 weeks TUDCA treatment on HFD-fed MUP-uPA mouse liver. IHC of F4/80 (scale bar=100 μm) (FIG. 12A) and TNF mRNA expression (FIG. 12B). Data are means±S.D. (n=5 per group). *p<0.05. […] Data are presented as means±S.D. (n=3 per group). […] Data are presented as means±S.D. (n=5 per group). […] Results are shown as means±S.D.
Hepatic lipids were extracted with chloroform/methanol (2:1 v/v), and TG and total cholesterol contents were measured with Triglyceride Reagent Set (Pointe Scientific) and Cholesterol E (Wako), respectively. FA composition was analyzed by gas-chromatography at SRL Inc., Tokyo, Japan.
Livers were fixed in 10% neutral-buffered formalin or 4% paraformaldehyde, embedded in paraffin, sectioned, and stained with hematoxylin and eosin (H&E), Sirius Red, and processed for IHC. For frozen block preparation, tissue was embedded in Tissue-Tek OCT compound (Sakura Finetek). IHC and IF analyses were described (He et al., 2013). Stained areas were quantitated with Image J software. Slides were incubated with primary antibodies, followed by secondary antibodies labeled with Alexa488 or Alexa594 (Molecular Probes). TUNEL staining was performed using an Apoalert DNA Fragmentation Assay kit (Clontech). Accumulation of superoxide anions was examined by DHE staining (Sakurai et al., 2008). Tissue sample preparation and EM analysis were described (Lee et al., 2012).
We examined the effect of TUDCA on NASH development. We initiated daily i.p. injections of TUDCA (250 mg/kg) or phosphate-buffered saline (PBS; vehicle control) to HFD-fed MUP-uPA mice at 16 weeks of age. […]

[3] = HFD-fed WT mice, 1.25 mg/kg i.p., 36 hrs, only in HFD-fed mice
[4] = 250 mg/kg i.p. daily for 4 weeks from 16 weeks of age, vs PBS vehicle
[5] = 250 mg/kg i.p. daily for 4 weeks, vs vehicle
[6] = 200 μM PA, WT hepatocytes, more pronounced in MUP-uPA hepatocytes

## O=C(O)CCCc1ccccc1 [4-PBA, 4-phenylbutyric acid]
[1]
  PA-induced cell death (cell viability): attenuated PA-induced cell death
[2]; 200 μM PA with 1 mM 4-PBA, IB
  CHOP induction upon PA treatment: reduced
  JNK phosphorylation upon PA treatment: only partially reduced
  SREBP1 maturation upon PA treatment: reduced

## tunicamycin
LFD or HFD-fed WT mice; HFD-fed WT mice, 1.25 mg/kg i.p., 36 hrs
  liver steatosis (gross appearance of liver): more steatotic
LFD or HFD-fed WT mice; [3]
  ALT release (serum ALT): induction
  ballooning degeneration: induction
  hepatocyte apoptosis (TUNEL): induction
LFD or HFD-fed WT mice; short term, by itself (without HFD)
  liver damage by tunicamycin alone: did not damage the liver

## C[C@H](CCC(=O)NCCS(=O)(=O)O)[C@H]1CC[C@H]2[C@@H]3[C@@H](O)C[C@@H]4C[C@H](O)CC[C@]4(C)[C@H]3CC[C@]12C [TUDCA, tauroursodeoxycholic acid]
[1]
  PA-induced cell death (cell viability): attenuated PA-induced cell death
HFD-fed MUP-uPA mice; [4]
  hepatic TG: significantly reduced
  hepatic cholesterol: significantly reduced
  hepatocyte ballooning (liver histology): attenuated
  hepatosteatosis (liver histology): attenuated
  serum ALT: significantly reduced
HFD-fed MUP-uPA mice; 250 mg/kg i.p. daily for 4 weeks, nuclear fraction
  SREBP1 maturation in liver (IB): inhibited
HFD-fed MUP-uPA mice; [5]
  ROS accumulation (DHE staining): suppressed
  hepatocyte death (TUNEL): suppressed
HFD-fed MUP-uPA mice; 250 mg/kg i.p. daily for 4 weeks, whole liver
  CHOP expression in liver (IB): inhibited
HFD-fed MUP-uPA mice; 4 weeks TUDCA treatment
  TNF expression in liver (mRNA): inhibited
  macrophage infiltration in liver (F4/80 IHC): inhibited

## CCCCCCCCCCCCCCCC(=O)O [PA, palmitic acid]
[1]; 300 μM PA, after 24 hrs, more extensive in MUP-uPA hepatocytes
  lipotoxic cell death caused by PA: lipotoxic cell death was seen in both WT and MUP-uPA hepatocytes
[2]; [6]
  CHOP expression caused by PA: increased
  SREBP1 maturation caused by PA: increased
[2]; 200 μM PA, effect restricted to WT hepatocytes
  JNK activation by PA: activated

Source: patent US10034462B2, “Animal model of nash-induced hepatocellular carcinoma and methods for developing specific therapeutics” (THE REGENTS OF THE UNIVERSITY OF CALIFORNIA, priority 2015, dated 2018)
